System: microsomal-cytosol fraction
Assay: % inhibition of C14-acetate incorporation into lipid fractions (fatty acid and cholesterol biosynthesis) in rat liver microsomal-cytosol fraction
Format: biochemical, Male Charles River rats
Conditions: 0.001 M; 37° C., 90 minutes
Method: The instant compounds are useful as pharmacological agents as evidenced by their ability to reduce serum triglyceride and cholesterol levels as determined in the following assay:
Male Charles River rats (160-200 g.), having had free access to food and water, are administered a standard diet containing 2% DEAE - cellulose (Reeve Angel anion exchange resin) for 5 days. The rats then are sacrificed and their livers removed immediately. The livers are homogenized in a medium consisting of 0.1 M potassium phosphate, pH 7.4, 0.004 m MgCl2 and 0.03 M nicotinamide, and the microsomalcytosol fraction obtained by centrifugation. 2.0 Ml. of the microsomal-cytosol fraction is incubated, at 37° C. for 90 minutes for fatty acid measurements and for measurement of cholosterol biosynthesis, in a standard assay mixture containing 10 micromoles of sodium acetate containing 0.1 microcuries of 2-C^14 -acetate, 2 micromoles nicotinamide adenine dinucleotide, 2 micromoles nicotinamide adenine dinucleotide phosphate, and 20 micromoles glucose-6-phosphate, and test compound, initially at 0.001 M, is added. All assays are run in duplicate with the assay to which no test compound is added serving as control. Heat inactivated homogenate serves as blank for both control and test systems.
Reaction rate is determined per unit of time by the amount of C^14 label incorporated into the lipid fraction from the radioactive acetate. Results are reported as % inhibition (i.e. (Difference in Reaction Rate between Control and Test Compound/Reaction Rate for Control) × 100).
Typical results are shown below in Table I for the product of Example 2, referred to as Compound I. Also represented are the results for Atromid S® , a brand of clofibrate, marketed as a hypocholesterolemic agent.

`CCOC(=O)C(C)(C)Oc1ccc(Cl)cc1` [Atromid-S, clofibrate] was tested, and the “% Inhibition, Fatty Acid Fraction” value was 24%, the “% Inhibition, Fraction (first column, qualifier not given)” value was 28% and the “% Inhibition, Non-Lipid Fraction” value was 42%.

From patent US4053481A, “2-Aryl-3,4-diphenylisoxazolin-5-ones” (G. D. Searle & Co., priority 1976, dated 1977)
